Measured values as given in PubChem BioAssay (NCI).
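Briefly, cells in 96-well plates were exposed to five compound concentrations for 48 h, and endpoints were estimated by linear interpolation. GI50 is the concentration that inhibits growth by half. TGI marks complete inhibition of growth.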

How the values were obtained:
Assay in all cases: NCI tumour cell line growth inhibition, 48 h
786-0 renal = test system: 786-0 renal
A549 NSCLC = test system: A549 NSCLC
ACHN renal = test system: ACHN renal
BT-549 breast = test system: BT-549 breast
CAKI-1 renal = test system: CAKI-1 renal
COLO 205 colon = test system: COLO 205 colon
DU-145 prostate = test system: DU-145 prostate
EKVX NSCLC = test system: EKVX NSCLC
HCT-116 colon = test system: HCT-116 colon
HCT-15 colon = test system: HCT-15 colon
HL-60(TB) leukemia = test system: HL-60(TB) leukemia
HOP-62 NSCLC = test system: HOP-62 NSCLC
HOP-92 NSCLC = test system: HOP-92 NSCLC
HS 578T breast = test system: HS 578T breast
HT29 colon = test system: HT29 colon
IGROV1 ovarian = test system: IGROV1 ovarian
K-562 leukemia = test system: K-562 leukemia
LOX IMVI melanoma = test system: LOX IMVI melanoma
M14 melanoma = test system: M14 melanoma
MCF7 breast = test system: MCF7 breast
MDA-MB-231 breast = test system: MDA-MB-231 breast
MDA-MB-435 = test system: MDA-MB-435
MOLT-4 leukemia = test system: MOLT-4 leukemia
NCI-H226 lung = test system: NCI-H226 lung
NCI-H23 lung = test system: NCI-H23 lung
NCI-H460 lung = test system: NCI-H460 lung
NCI-H522 lung = test system: NCI-H522 lung
NCI/ADR-RES ovarian = test system: NCI/ADR-RES ovarian
OVCAR-3 ovarian = test system: OVCAR-3 ovarian
OVCAR-4 ovarian = test system: OVCAR-4 ovarian
OVCAR-5 ovarian = test system: OVCAR-5 ovarian
OVCAR-8 ovarian = test system: OVCAR-8 ovarian
PC-3 prostate = test system: PC-3 prostate
RPMI-8226 leukemia = test system: RPMI-8226 leukemia
RXF 393 renal = test system: RXF 393 renal
SF-268 CNS = test system: SF-268 CNS
SF-295 CNS = test system: SF-295 CNS
SF-539 CNS = test system: SF-539 CNS
SK-MEL-2 melanoma = test system: SK-MEL-2 melanoma
SK-MEL-28 melanoma = test system: SK-MEL-28 melanoma
SK-MEL-5 melanoma = test system: SK-MEL-5 melanoma
SK-OV-3 ovarian = test system: SK-OV-3 ovarian
SN12C renal = test system: SN12C renal
SNB-19 CNS = test system: SNB-19 CNS
SNB-75 CNS = test system: SNB-75 CNS
SR leukemia = test system: SR leukemia
SW-620 colon = test system: SW-620 colon
U251 CNS = test system: U251 CNS
UACC-257 melanoma = test system: UACC-257 melanoma
UACC-62 melanoma = test system: UACC-62 melanoma
UO-31 renal = test system: UO-31 renal

COC(=O)[C@]1(C)CCC[C@]2(C)[C@@H]1CCC13C[C@@H](C=CO1)[C@@H](C)CC32O (some centres not stated)
GI50 (786-0 renal): 89.5 µM | TGI (786-0 renal): > 100 µM | GI50 (A549 NSCLC): 33.1 µM | TGI (A549 NSCLC): > 100 µM | GI50 (ACHN renal): > 100 µM | TGI (ACHN renal): > 100 µM | GI50 (BT-549 breast): > 100 µM | TGI (BT-549 breast): > 100 µM | GI50 (CAKI-1 renal): 55.2 µM | TGI (CAKI-1 renal): > 100 µM | GI50 (COLO 205 colon): 64.4 µM | TGI (COLO 205 colon): > 100 µM | GI50 (DU-145 prostate): 19.9 µM | TGI (DU-145 prostate): 43.5 µM | GI50 (EKVX NSCLC): 2.07 µM | TGI (EKVX NSCLC): > 100 µM | GI50 (HCT-116 colon): 7.89 µM | TGI (HCT-116 colon): > 100 µM | GI50 (HCT-15 colon): > 100 µM | TGI (HCT-15 colon): > 100 µM | GI50 (HL-60(TB) leukemia): 45.4 µM | TGI (HL-60(TB) leukemia): > 100 µM | GI50 (HOP-62 NSCLC): > 100 µM | TGI (HOP-62 NSCLC): > 100 µM | GI50 (HOP-92 NSCLC): 22 µM | TGI (HOP-92 NSCLC): > 100 µM | GI50 (HS 578T breast): 20.7 µM | TGI (HS 578T breast): 76.5 µM | GI50 (HT29 colon): 11 µM | TGI (HT29 colon): > 100 µM | GI50 (IGROV1 ovarian): > 100 µM | TGI (IGROV1 ovarian): > 100 µM | GI50 (K-562 leukemia): 36.7 µM | TGI (K-562 leukemia): > 100 µM | GI50 (LOX IMVI melanoma): > 100 µM | TGI (LOX IMVI melanoma): > 100 µM | GI50 (M14 melanoma): 50.3 µM | TGI (M14 melanoma): > 100 µM | GI50 (MCF7 breast): 25.7 µM | TGI (MCF7 breast): > 100 µM | GI50 (MDA-MB-231 breast): 65.9 µM | TGI (MDA-MB-231 breast): > 100 µM | GI50 (MDA-MB-435): 23.9 µM | TGI (MDA-MB-435): > 100 µM | GI50 (MOLT-4 leukemia): 24.5 µM | TGI (MOLT-4 leukemia): > 100 µM | GI50 (NCI-H226 lung): > 100 µM | TGI (NCI-H226 lung): > 100 µM | GI50 (NCI-H23 lung): 20.3 µM | TGI (NCI-H23 lung): > 100 µM | GI50 (NCI-H460 lung): 43.8 µM | TGI (NCI-H460 lung): > 100 µM | GI50 (NCI-H522 lung): > 100 µM | TGI (NCI-H522 lung): > 100 µM | GI50 (NCI/ADR-RES ovarian): > 100 µM | TGI (NCI/ADR-RES ovarian): > 100 µM | GI50 (OVCAR-3 ovarian): 17.8 µM | TGI (OVCAR-3 ovarian): 46.8 µM | GI50 (OVCAR-4 ovarian): 61.5 µM | TGI (OVCAR-4 ovarian): > 100 µM | GI50 (OVCAR-5 ovarian): > 100 µM | TGI (OVCAR-5 ovarian): > 100 µM | GI50 (OVCAR-8 ovarian): > 100 µM | TGI (OVCAR-8 ovarian): > 100 µM | GI50 (PC-3 prostate): 38 µM | TGI (PC-3 prostate): > 100 µM | GI50 (RPMI-8226 leukemia): 7.84 µM | TGI (RPMI-8226 leukemia): 82 µM | GI50 (RXF 393 renal): 66.8 µM | TGI (RXF 393 renal): > 100 µM | GI50 (SF-268 CNS): > 100 µM | TGI (SF-268 CNS): > 100 µM | GI50 (SF-295 CNS): 27.5 µM | TGI (SF-295 CNS): 88.7 µM | GI50 (SF-539 CNS): 0.0516 µM | TGI (SF-539 CNS): > 100 µM | GI50 (SK-MEL-2 melanoma): > 100 µM | TGI (SK-MEL-2 melanoma): > 100 µM | GI50 (SK-MEL-28 melanoma): > 100 µM | TGI (SK-MEL-28 melanoma): > 100 µM | GI50 (SK-MEL-5 melanoma): 34 µM | TGI (SK-MEL-5 melanoma): > 100 µM | GI50 (SK-OV-3 ovarian): > 100 µM | TGI (SK-OV-3 ovarian): > 100 µM | GI50 (SN12C renal): > 100 µM | TGI (SN12C renal): > 100 µM | GI50 (SNB-19 CNS): > 100 µM | TGI (SNB-19 CNS): > 100 µM | GI50 (SNB-75 CNS): 62.2 µM | TGI (SNB-75 CNS): > 100 µM | GI50 (SR leukemia): 17.1 µM | TGI (SR leukemia): > 100 µM | GI50 (SW-620 colon): > 100 µM | TGI (SW-620 colon): > 100 µM | GI50 (U251 CNS): > 100 µM | TGI (U251 CNS): > 100 µM | GI50 (UACC-257 melanoma): 70 µM | TGI (UACC-257 melanoma): > 100 µM | GI50 (UACC-62 melanoma): > 100 µM | TGI (UACC-62 melanoma): > 100 µM | GI50 (UO-31 renal): > 100 µM | TGI (UO-31 renal): > 100 µM
